Results as given in patent US7276491B2, “Anticoagulant and fibrinolytic therapy using p38 MAP kinase inhibitors” (Boehringer Ingelheim Pharmaceuticals, Inc., priority 2002, dated 2007).

Tested on: LPS-induced activation of coagulation, fibrinolysis and the vascular endothelium
Assay: LPS study: randomized, double-blind, placebo-controlled human endotoxemia experiment
Type: in vivo
[1] = healthy male volunteers, high dose (600 mg oral) 3 h before LPS 4 ng/kg i.v.

Cc1ccc(-n2nc(C(C)(C)C)cc2NC(=O)Nc2ccc(OCCN3CCOCC3)c3ccccc23)cc1 [formula (III), 1-[3-tert-butyl-1-p-tolyl-1H-pyrazol-5-yl]-3-[4-(2-morpholin-4-yl-ethoxy)naphthalen-1-yl]-urea]
LPS-elicited increase in plasma levels of sE-selectin (endothelial cell activation) [1]: attenuated
LPS-elicited increase in plasma levels of vWF (endothelial cell activation) [1]: attenuated
LPS-induced coagulation activation (increase in plasma prothrombin fragment F1+2 concentrations) (healthy male volunteers, high end dosing (600 mg oral) 3 h before LPS 4 ng/kg i.v., vs placebo): inhibited LPS-induced coagulation activation, both delaying and diminishing the increase in plasma F1+2 concentrations
activation of the fibrinolytic system (healthy male volunteers, oral dose 3 h before LPS 4 ng/kg i.v., tPA, PAI-1, PAPc assayed): even stronger inhibitory effect
IL-6 concentrations (subjects treated during low grade endotoxemia (LPS i.v.)): reduced IL-6 concentrations
